The results in this text go back to patent publication US12258328B2, “6-membered heteroaryl-containing aminopyridine compounds as EGFR inhibitors” (YUHAN CORPORATION, priority 2021, dated 2025).

Molecules are shown by their SMILES. Like-named read-outs stand apart in the source and are kept apart here. A value given as a limit tells only on which side of the number the result lay.

Test [1] deals with EGFR L858R/T790M/C797S (Homo sapiens, UniProt P00533, C797S/L858R/T790M). Nature of the test: Biochemical EGFR kinase assay (Lance Ultra TR-FRET), triple mutant L858R/T790M/C797S. The method, boiled down:
(§1)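 Kinase activity is measured by TR-FRET phosphopeptide detection. Compounds span 0.003 μM to 10 μM; the 1 h reaction at room temperature is quenched with EDTA, then labelled antibody (2 nM) is incubated 60 min before reading.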
Background: TR-FRET usually uses a lanthanide donor and a delayed reading to cut background.

Test [2] addresses EGFR del19/T790M/C797S (Homo sapiens, UniProt P00533, C797S/DEL746-750/T790M). Nature of the test: Biochemical EGFR kinase assay (Lance Ultra TR-FRET), triple mutant del19/T790M/C797S. The method, boiled down:
as §1

The target of test [3] is EGFR L858R/C797S (Homo sapiens, UniProt P00533, C797S/L858R). The test can be described thus: Biochemical EGFR kinase assay (Lance Ultra TR-FRET), double mutant L858R/C797S. The method in brief: as §1
Test [4] concerns the target EGFR del19/C797S (Homo sapiens, UniProt P00533, C797S/DEL746-750). The test can be described thus: Biochemical EGFR kinase assay (Lance Ultra TR-FRET), double mutant del19/C797S. The method in brief:
as §1

Test [5] has as its target EGFR wildtype (Homo sapiens, UniProt P00533). The test can be described thus: Biochemical EGFR kinase assay (Lance Ultra TR-FRET), wildtype. The method in brief:
as §1

Where [6] appears, read: ATP at Km, read-out: IC50 L858R/T790M/C797S, Km ATP.
The mark [7] stands for this setting: IC50 L858R/T790M/C797S, 100 μM ATP.
[8] abbreviates: ATP at Km, read-out: IC50 del19/T790M/C797S, Km ATP.
The mark [9] stands for this setting: IC50 del19/T790M/C797S, 100 μM ATP.
The mark [10] stands for this setting: ATP at Km, read-out: IC50 L858R/C797S, Km ATP.
Where [11] appears, read: ATP at Km, read-out: IC50 WT, Km ATP.
[12] abbreviates: IC50 L858R/T790M/C797S (nM) 100 μM ATP, 100 μM ATP.
The mark [13] stands for this setting: Km ATP, read-out: IC50 L858R/T790M/C797S (nM) Km ATP.
Setting [14] is: IC50 del19/T790M/C797S (nM) 100 μM ATP, 100 μM ATP.
The mark [15] stands for this setting: Km ATP, read-out: IC50 del19/T790M/C797S (nM) Km ATP.
Where [16] appears, read: IC50 L858R/C797S (nM) 100 μM ATP, 100 μM ATP.
Setting [17] is: Km ATP, read-out: IC50 L858R/C797S (nM) Km ATP.
The mark [18] stands for this setting: IC50 del19/C797S (nM) 100 μM ATP, 100 μM ATP.
Setting [19] is: Km ATP, read-out: IC50 del19/C797S (nM) Km ATP.
[20] abbreviates: IC50 WT (nM) 100 μM ATP, 100 μM ATP.
The mark [21] stands for this setting: Km ATP, read-out: IC50 WT (nM) Km ATP.
The mark [22] stands for this setting: ATP at Km, read-out: IC50 del19/C797S, Km ATP.

Sequence of EGFR L858R/T790M/C797S (P00533 25-1210 T790M/C797S/L858R): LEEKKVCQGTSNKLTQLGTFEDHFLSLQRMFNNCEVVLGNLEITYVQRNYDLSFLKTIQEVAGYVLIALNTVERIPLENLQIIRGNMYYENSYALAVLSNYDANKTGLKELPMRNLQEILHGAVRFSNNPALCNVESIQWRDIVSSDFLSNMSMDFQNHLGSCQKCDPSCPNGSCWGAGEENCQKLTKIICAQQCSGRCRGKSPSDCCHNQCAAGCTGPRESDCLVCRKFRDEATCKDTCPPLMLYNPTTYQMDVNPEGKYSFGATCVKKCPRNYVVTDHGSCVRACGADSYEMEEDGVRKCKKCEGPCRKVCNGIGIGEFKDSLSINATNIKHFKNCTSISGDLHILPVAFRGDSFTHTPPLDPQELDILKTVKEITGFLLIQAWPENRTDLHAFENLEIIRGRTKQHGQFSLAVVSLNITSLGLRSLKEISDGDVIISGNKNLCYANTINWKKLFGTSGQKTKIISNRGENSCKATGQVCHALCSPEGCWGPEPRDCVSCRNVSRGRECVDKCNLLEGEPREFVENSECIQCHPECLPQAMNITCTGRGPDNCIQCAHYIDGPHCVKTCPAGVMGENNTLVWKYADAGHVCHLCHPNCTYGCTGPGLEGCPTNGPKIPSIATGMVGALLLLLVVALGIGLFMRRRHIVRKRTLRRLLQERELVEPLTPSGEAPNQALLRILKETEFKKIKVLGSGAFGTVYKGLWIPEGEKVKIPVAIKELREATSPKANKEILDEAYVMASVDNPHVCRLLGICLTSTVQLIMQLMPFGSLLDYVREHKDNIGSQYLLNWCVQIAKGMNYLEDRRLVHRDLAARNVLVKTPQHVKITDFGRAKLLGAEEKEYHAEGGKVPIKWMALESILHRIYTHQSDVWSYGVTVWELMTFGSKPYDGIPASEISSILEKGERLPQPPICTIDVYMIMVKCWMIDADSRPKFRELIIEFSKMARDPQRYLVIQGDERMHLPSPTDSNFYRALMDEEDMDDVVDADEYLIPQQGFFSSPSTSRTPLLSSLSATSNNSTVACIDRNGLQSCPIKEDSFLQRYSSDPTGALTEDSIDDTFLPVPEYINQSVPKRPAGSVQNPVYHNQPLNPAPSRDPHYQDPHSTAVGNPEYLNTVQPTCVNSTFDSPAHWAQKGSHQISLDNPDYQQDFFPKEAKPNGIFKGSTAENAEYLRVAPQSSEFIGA
Sequence of EGFR wildtype (P00533 25-1210): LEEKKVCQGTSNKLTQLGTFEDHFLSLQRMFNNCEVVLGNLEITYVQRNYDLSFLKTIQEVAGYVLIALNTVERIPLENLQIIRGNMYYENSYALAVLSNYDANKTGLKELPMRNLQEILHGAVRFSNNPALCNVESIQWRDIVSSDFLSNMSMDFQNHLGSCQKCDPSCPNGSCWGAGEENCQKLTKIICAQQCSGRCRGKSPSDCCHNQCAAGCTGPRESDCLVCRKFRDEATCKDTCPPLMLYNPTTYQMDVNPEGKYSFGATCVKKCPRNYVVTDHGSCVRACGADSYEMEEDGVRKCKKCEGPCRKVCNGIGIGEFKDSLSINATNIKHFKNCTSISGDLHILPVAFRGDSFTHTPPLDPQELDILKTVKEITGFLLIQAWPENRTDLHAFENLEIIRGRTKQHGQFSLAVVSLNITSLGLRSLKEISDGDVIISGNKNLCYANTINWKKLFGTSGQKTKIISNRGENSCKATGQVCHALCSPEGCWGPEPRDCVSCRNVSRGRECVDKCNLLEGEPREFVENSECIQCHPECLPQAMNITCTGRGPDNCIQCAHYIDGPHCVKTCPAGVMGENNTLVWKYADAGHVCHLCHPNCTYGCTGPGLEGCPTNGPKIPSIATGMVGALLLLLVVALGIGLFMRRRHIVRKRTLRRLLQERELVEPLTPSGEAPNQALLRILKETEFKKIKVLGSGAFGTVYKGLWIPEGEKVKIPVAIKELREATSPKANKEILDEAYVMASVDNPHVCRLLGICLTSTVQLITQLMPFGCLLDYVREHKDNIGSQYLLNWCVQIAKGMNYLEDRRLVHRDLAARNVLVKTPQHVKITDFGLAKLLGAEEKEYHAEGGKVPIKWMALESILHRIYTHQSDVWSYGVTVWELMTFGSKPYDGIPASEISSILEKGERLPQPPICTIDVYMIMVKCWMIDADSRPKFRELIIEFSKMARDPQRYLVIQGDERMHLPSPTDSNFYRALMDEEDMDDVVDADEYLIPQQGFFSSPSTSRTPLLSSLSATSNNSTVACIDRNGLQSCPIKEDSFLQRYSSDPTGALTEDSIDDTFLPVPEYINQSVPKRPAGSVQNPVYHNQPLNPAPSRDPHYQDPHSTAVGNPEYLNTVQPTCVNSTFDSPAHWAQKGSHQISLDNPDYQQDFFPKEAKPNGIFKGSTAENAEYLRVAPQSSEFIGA
Sequence of EGFR del19/T790M/C797S (P00533 with tags, fused parts or gaps DEL746-750/T790M/C797S): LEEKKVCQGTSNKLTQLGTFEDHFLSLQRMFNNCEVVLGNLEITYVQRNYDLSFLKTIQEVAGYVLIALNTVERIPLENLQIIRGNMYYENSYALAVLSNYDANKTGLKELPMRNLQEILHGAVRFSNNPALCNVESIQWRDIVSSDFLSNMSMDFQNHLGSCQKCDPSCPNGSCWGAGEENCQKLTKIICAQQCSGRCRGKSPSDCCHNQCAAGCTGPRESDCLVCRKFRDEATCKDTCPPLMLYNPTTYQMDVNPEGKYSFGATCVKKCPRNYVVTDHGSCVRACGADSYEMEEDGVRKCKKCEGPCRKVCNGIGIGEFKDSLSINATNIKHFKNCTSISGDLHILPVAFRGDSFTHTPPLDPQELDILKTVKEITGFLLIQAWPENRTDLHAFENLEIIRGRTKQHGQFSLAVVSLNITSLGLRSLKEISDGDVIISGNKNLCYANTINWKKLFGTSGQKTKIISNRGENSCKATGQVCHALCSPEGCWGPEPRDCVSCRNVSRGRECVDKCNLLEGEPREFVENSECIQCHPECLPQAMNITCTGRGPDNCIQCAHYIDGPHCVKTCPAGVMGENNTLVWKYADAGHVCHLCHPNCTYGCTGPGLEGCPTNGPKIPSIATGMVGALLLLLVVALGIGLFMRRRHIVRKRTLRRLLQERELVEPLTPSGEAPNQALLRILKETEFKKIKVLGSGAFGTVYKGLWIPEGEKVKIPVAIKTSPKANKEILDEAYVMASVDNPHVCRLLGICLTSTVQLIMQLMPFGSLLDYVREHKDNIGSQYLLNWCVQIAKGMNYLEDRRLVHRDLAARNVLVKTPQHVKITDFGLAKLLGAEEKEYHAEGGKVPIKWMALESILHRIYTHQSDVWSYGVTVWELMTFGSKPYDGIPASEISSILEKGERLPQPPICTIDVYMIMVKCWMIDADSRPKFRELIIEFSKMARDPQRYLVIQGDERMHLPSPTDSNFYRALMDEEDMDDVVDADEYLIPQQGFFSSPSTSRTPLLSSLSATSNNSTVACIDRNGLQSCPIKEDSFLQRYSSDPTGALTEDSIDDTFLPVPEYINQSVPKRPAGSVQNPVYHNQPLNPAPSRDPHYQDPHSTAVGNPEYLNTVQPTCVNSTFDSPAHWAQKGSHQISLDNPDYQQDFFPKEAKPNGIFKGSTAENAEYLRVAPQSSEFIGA
Sequence of EGFR del19/C797S (P00533 with tags, fused parts or gaps DEL746-750/C797S): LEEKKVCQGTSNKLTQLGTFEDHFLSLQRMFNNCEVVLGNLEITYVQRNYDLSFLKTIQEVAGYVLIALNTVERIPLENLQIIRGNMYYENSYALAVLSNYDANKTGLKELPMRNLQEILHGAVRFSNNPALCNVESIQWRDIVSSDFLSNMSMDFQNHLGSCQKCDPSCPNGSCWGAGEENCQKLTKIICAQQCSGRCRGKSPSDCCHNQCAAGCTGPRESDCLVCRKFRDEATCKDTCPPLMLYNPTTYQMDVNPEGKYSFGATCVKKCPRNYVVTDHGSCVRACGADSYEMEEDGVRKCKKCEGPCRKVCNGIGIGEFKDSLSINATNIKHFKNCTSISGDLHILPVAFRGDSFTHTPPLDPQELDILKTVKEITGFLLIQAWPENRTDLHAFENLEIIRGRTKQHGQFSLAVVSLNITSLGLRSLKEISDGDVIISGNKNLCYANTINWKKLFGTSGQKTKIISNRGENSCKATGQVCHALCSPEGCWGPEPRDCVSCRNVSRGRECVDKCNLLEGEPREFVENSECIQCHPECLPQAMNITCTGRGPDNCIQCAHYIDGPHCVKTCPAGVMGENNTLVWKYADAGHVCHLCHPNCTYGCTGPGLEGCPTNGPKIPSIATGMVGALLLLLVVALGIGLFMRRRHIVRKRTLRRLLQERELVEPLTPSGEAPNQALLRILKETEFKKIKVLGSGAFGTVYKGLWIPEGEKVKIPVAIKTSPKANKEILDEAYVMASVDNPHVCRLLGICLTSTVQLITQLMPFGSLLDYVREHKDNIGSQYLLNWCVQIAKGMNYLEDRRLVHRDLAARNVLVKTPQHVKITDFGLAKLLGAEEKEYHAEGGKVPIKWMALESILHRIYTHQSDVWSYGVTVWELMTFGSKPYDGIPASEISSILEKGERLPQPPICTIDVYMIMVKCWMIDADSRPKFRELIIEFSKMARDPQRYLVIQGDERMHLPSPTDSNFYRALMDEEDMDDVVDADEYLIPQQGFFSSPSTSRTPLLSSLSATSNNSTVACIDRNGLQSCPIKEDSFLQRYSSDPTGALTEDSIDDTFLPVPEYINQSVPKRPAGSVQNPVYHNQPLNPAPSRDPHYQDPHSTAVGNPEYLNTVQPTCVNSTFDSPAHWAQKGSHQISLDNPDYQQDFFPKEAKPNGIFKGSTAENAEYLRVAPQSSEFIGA

Take `C[C@]1(O)CC[C@@H](Nc2cc(Nc3ccnc(-c4cnn(S(=O)(=O)C5CC5)c4)n3)ncc2-c2cc(OCCN3CCOCC3)ccn2)CC1` [Example 211, (1s,4s)-4-((6′-((2-(1-(Cyclopropylsulfonyl)-1H-pyrazol-4-yl)pyrimidin-4-yl)amino)-4-(2-morpholinoethoxy)-[2,3′-bipyridin]-4′-yl)amino)-1-methylcyclohexan-1-ol]: the IC50 came out at 0.1 nM in test [1] (setting [6]); 0.4 nM in test [1] (setting [7]); 0.3 nM in test [2] (setting [8]); 0.5 nM in test [2] (setting [9]); 0.5 nM in test [3] (setting [10]); 30.1 nM in test [3] (IC50 L858R/C797S, 100 μM ATP). Moreover, the IC50 is 2.4 nM in test [4] (IC50 del19/C797S, 100 μM ATP); 6.9 nM in test [5] (setting [11]); 9480 nM in test [5] (IC50 WT, 100 μM ATP).

Regarding `Cc1ccc(-c2cnc(Nc3ccnc(-c4cnn(S(=O)(=O)C5CC5)c4)n3)cc2N[C@H]2CC[C@@](C)(O)CC2)nc1` [Example 8, (1s,4s)-4-((6′-((2-(1-(Cyclopropylsulfonyl)-1H-pyrazol-4-yl)pyrimidin-4-yl)amino)-5-methyl-[2,3′-bipyridin]-4′-yl)amino)-1-methylcyclohexan-1-ol], the IC50 in test [1] (setting [12]) came out at 0.2 nM; in test [1] (setting [13]) it was 0.1 nM; in test [2] (setting [14]) it was 0.2 nM; in test [2] (setting [15]), 0.4 nM; in test [3] (setting [16]), 6.3 nM; in test [3] (setting [17]) it was 0.4 nM. Also, the IC50 came to 0.7 nM in test [4] (setting [18]), 0.4 nM in test [4] (setting [19]), 8890 nM in test [5] (setting [20]) and 1 nM in test [5] (setting [21]).

Consider `O=S(=O)(C1CC1)n1cc(-c2nccc(Nc3cc(NC4CCC(F)(CO)CC4)c(-c4cccc(F)n4)cn3)n2)cn1` (stereo not shown) [Example 162, (4-((6′-((2-(1-(Cyclopropylsulfonyl)-1H-pyrazol-4-yl)pyrimidin-4-yl)amino)-6-fluoro-[2,3′-bipyridin]-4′-yl)amino)-1-fluorocyclohexyl)methanol], for which the IC50 in test [1] (setting [6]) is 0.4 nM; in test [1] (setting [7]) it was 3 nM; in test [2] (setting [8]), 0.5 nM; in test [2] (setting [9]), 1.3 nM; in test [3] (setting [10]), 19.9 nM; in test [3] (IC50 L858R/C797S, 100 μM ATP), 1530 nM. Moreover, the IC50 in test [4] (setting [22]) is 13.1 nM; in test [4] (IC50 del19/C797S, 100 μM ATP), 21 nM; in test [5] (setting [11]), 2970 nM; in test [5] (IC50 WT, 100 μM ATP), above 10000 nM.

With `C[C@]1(O)CC[C@@H](Nc2cc(Nc3ccnc(-c4cnn(S(=O)(=O)C5CC5)c4)n3)ncc2-c2ccc(N3CCC(F)(F)CC3)cn2)CC1` [Example 47, (1s,4s)-4-((6′-((2-(1-(Cyclopropylsulfonyl)-1H-pyrazol-4-yl)pyrimidin-4-yl)amino)-5-(4,4-difluoropiperidin-1-yl)-[2,3′-bipyridin]-4′-yl)amino)-1-methylcyclohexan-1-ol], the IC50 stood at 3 nM in test [1] (setting [12]); 1 nM in test [1] (setting [13]); 2 nM in test [2] (setting [15]); 17.7 nM in test [3] (setting [16]); 7.9 nM in test [3] (setting [17]); 4.2 nM in test [4] (setting [18]). Also, the IC50 was 3.2 nM in test [4] (setting [19]), above 10000 nM in test [5] (setting [20]) and 7.1 nM in test [5] (setting [21]).

Turning to `O=S(=O)(C1CC1)n1cc(-c2nccc(Nc3cc(N[C@H]4CC[C@@H](NCCF)CC4)c(-c4cccc(F)n4)cn3)n2)cn1` [Example 273, N^6′-(2-(1-(Cyclopropylsulfonyl)-1H-pyrazol-4-yl)pyrimidin-4-yl)-6-fluoro-N^4′-((1s,4s)-4-((2-fluoroethyl)amino)cyclohexyl)-[2,3′-bipyridine]-4′,6′-diamine], the IC50 in test [1] (setting [7]) was 0.3 nM; in test [2] (setting [9]), 0.2 nM; in test [3] (IC50 L858R/C797S, 100 μM ATP) it was 8.6 nM; in test [4] (IC50 del19/C797S, 100 μM ATP), 1 nM; in test [5] (IC50 WT, 100 μM ATP), 2230 nM.

For `CN(C)Cc1cccc(-c2cnc(Nc3ccnc(-c4cnn(S(=O)(=O)C5CC5)c4)n3)cc2N[C@H]2CC[C@@](C)(O)CC2)n1` [Example 30, (1s,4s)-4-((6′-((2-(1-(Cyclopropylsulfonyl)-1H-pyrazol-4-yl)pyrimidin-4-yl)amino)-6-((dimethylamino)methyl)-[2,3′-bipyridin]-4′-yl)amino)-1-methylcyclohexan-1-ol], the IC50 in test [1] (setting [12]) was determined as 0.1 nM; in test [2] (setting [14]) it was 0.1 nM; in test [3] (setting [16]), 2 nM; in test [4] (setting [18]) it was 0.4 nM; in test [5] (setting [20]), 2910 nM.

As for `O=S(=O)(C1CC1)n1cc(-c2nccc(Nc3cc(N[C@H]4CC[C@@H](CO)CC4)c(-c4cccc(CC(F)(F)F)n4)cn3)n2)cn1` [Example 246, ((1s,4s)-4-((6′-((2-(1-(Cyclopropylsulfonyl)-1H-pyrazol-4-yl)pyrimidin-4-yl)amino)-6-(2,2,2-trifluoroethyl)-[2,3′-bipyridin]-4′-yl)amino)cyclohexyl)methanol], the IC50 in test [1] (setting [6]) is 0.4 nM; in test [1] (setting [7]), 1.1 nM; in test [2] (setting [8]), 3 nM; in test [2] (setting [9]) it was 7.2 nM; in test [3] (setting [10]) it was 12.4 nM; in test [3] (IC50 L858R/C797S, 100 μM ATP), 45.2 nM. Besides, the IC50 in test [4] (setting [22]) is 6.9 nM; in test [4] (IC50 del19/C797S, 100 μM ATP), 21.1 nM; in test [5] (setting [11]) it was 42 nM; in test [5] (IC50 WT, 100 μM ATP), above 10000 nM.

Consider `CC(C)(O)[C@H]1CC[C@@H](Nc2cc(Nc3ccnc(-c4cnn(S(=O)(=O)C5CC5)c4)n3)ncc2-c2ccc(CN3CCC(O)CC3)cn2)CC1` [Example 98, 1-((6′-((2-(1-(Cyclopropylsulfonyl)-1H-pyrazol-4-yl)pyrimidin-4-yl)amino)-4′-(((1s,4s)-4-(2-hydroxypropan-2-yl)cyclohexyl)amino)-[2,3′-bipyridin]-5-yl)methyl) piperidin-4-ol], for which the IC50 in test [1] (setting [12]) was 0.2 nM; in test [1] (setting [13]), 0.1 nM; in test [2] (setting [14]) it was 0.5 nM; in test [2] (setting [15]), 0.4 nM; in test [3] (setting [16]), 1.9 nM; in test [4] (setting [18]), 0.3 nM. The IC50 in test [5] (setting [20]) turned out to be 152 nM.

Consider `O=S(=O)(C1CC1)n1cc(-c2nccc(Nc3cc(NCC4(CO)COC4)c(-c4cccc(F)n4)cn3)n2)cn1` [Example 161, (3-(((6′-((2-(1-(Cyclopropylsulfonyl)-1H-pyrazol-4-yl)pyrimidin-4-yl)amino)-6-fluoro-[2,3′-bipyridin]-4′-yl)amino)methyl)oxetan-3-yl)methanol], for which the IC50 in test [1] (setting [6]) is 0.1 nM; in test [1] (setting [7]), 0.5 nM; in test [2] (setting [8]) it was 0.1 nM; in test [2] (setting [9]) it was 0.1 nM; in test [3] (setting [10]) it was 1.9 nM; in test [3] (IC50 L858R/C797S, 100 μM ATP), 12.4 nM. In addition, the IC50 in test [4] (setting [22]) is 0.9 nM; in test [4] (IC50 del19/C797S, 100 μM ATP), 1.2 nM; in test [5] (setting [11]), 11.6 nM; in test [5] (IC50 WT, 100 μM ATP) it was above 10000 nM.

For `C[C@]1(O)CC[C@@H](Nc2cc(Nc3ccnc(-c4cnn(S(=O)(=O)C5CC5)c4)n3)ncc2-c2ccc(CC(F)(F)F)cn2)CC1` [Example 218, (1s,4s)-4-((6′-((2-(1-(Cyclopropylsulfonyl)-1H-pyrazol-4-yl)pyrimidin-4-yl)amino)-5-(2,2,2-trifluoroethyl)-[2,3′-bipyridin]-4′-yl)amino)-1-methylcyclohexan-1-ol], the IC50 in test [1] (setting [6]) is 0.7 nM; in test [1] (setting [7]), 1.8 nM; in test [2] (setting [8]), 2.1 nM; in test [2] (setting [9]), 0.6 nM; in test [3] (setting [10]) it was 3.6 nM; in test [3] (IC50 L858R/C797S, 100 μM ATP), 59.4 nM. Besides, the IC50 in test [4] (IC50 del19/C797S, 100 μM ATP) was 7.1 nM; in test [5] (setting [11]), 10.3 nM; in test [5] (IC50 WT, 100 μM ATP), above 10000 nM.

With `CN1CCC(Oc2ccc(-c3cnc(Nc4ccnc(-c5cnn(S(=O)(=O)C6CC6)c5)n4)cc3N[C@H]3CC[C@@H](F)CC3)nc2)CC1` [Example 132, N^6′-(2-(1-(Cyclopropylsulfonyl)-1H-pyrazol-4-yl)pyrimidin-4-yl)-N^4′-((1s,4s)-4-fluorocyclohexyl)-5-((1-methylpiperidin-4-yl)oxy)-[2,3′-bipyridine]-4′,6′-diamine], the IC50 in test [1] (setting [13]) is 0.4 nM; in test [2] (setting [15]), 0.4 nM; in test [3] (setting [17]) it was 0.3 nM; in test [4] (setting [19]) it was 0.4 nM; in test [5] (setting [21]) it was 0.8 nM.

Regarding `C[C@]1(O)CC[C@@H](Nc2cc(Nc3ccnc(-c4cnn(S(=O)(=O)C5CC5)c4)n3)ncc2-c2cccc(CN3CCOCC3)n2)CC1` [Example 29, (1s,4s)-4-((6′-((2-(1-(Cyclopropylsulfonyl)-1H-pyrazol-4-yl)pyrimidin-4-yl)amino)-6-(morpholinomethyl)-[2,3′-bipyridin]-4′-yl)amino)-1-methylcyclohexan-1-ol], the IC50 in test [1] (setting [12]) was 0.4 nM; in test [2] (setting [14]), 0.2 nM; in test [3] (setting [16]) it was 26.2 nM; in test [4] (setting [18]) it was 1.8 nM; in test [5] (setting [20]), above 10000 nM.
